Source: patent US20230066946A1, “1,5-DIPHENYLPYRAZOLYL-3-OXYALKYL ACIDS AND 1-PHENYL-5-THIENYLPYRAZOLYL-3-OXYALKYL ACIDS AND THE USE THEREOF FOR CONTROL OF UNWANTED PLANT GROWTH” (Bayer Aktiengesellschaft, priority 2019, published 2023)

Tests used:
[1] = test system: AMARE; assay: Post-emergence herbicidal action against AMARE; format: in vivo, Amaranthus retroflexus; conditions: visual rating about 3 weeks after treatment
Outline: (§1)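 Each pot held twin-sown weeds in sandy loam, treated post-emergence 2 to 3 weeks after sowing at the one-leaf stage. Compound was given as a foliar spray at 1280 or 320 g/ha in 600 litres per hectare water with 0.5% additive. Visual scoring against untreated controls followed after about 3 weeks.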

[2] = test system: SETVI; assay: Post-emergence herbicidal action against SETVI; format: in vivo, Setaria viridis; conditions: 1280 g/ha, post-emergence at one-leaf stage, rated visually after about 3 weeks vs untreated controls
Outline: as §1

[3] = test system: AVEFA; assay: Post-emergence herbicidal action against AVEFA; format: in vivo, Avena fatua; conditions: 1280 g/ha, post-emergence at one-leaf stage, rated visually after about 3 weeks vs untreated controls
Protocol: (§2) [table] Seeds of mono- and dicotyledonous weed plants are placed in plastic pots in sandy loam soil (twin sowing with one species each of mono- or dicotyledonous weed plants per pot), covered with soil and cultivated in a greenhouse under controlled growth conditions. 2 to 3 weeks after sowing, the test plants are treated at the one-leaf stage. The compounds of the invention, formulated in the form of wettable powders (WP) or as emulsion concentrates (EC), are applied to the green parts of the plants as aqueous suspension or emulsion with addition of 0.5% additive at a water application rate equivalent to 600 litres per hectare. After the test plants have been kept in the greenhouse under optimum growth conditions for about 3 weeks, the activity of the preparations is rated visually in comparison to untreated controls. For example, 100% activity=the plants have died, 0% activity=like control plants. Tables 5.1-5.16 below show the effects of selected compounds of the general formula (I) according to Tables 1 to 3 on various harmful plants at an application rate corresponding to 1280 or 320 g/ha, which have been obtained by the aforementioned experimental method.

[4] = test system: CYPES; assay: Pre-emergence herbicidal action against CYPES; format: in vivo, Cyperus esculentus; conditions: scored visually after about 3 weeks vs untreated controls, 100% = plants have died, 0% = like control plants
Description: (§3) Seeds of mono- and dicotyledonous weed plants are placed in plastic pots in sandy loam soil (doubly sown with one species each of mono- or dicotyledonous weed plants per pot) and covered with soil. The compounds of the invention, formulated in the form of wettable powders (WP) or as emulsion concentrates (EC), are then applied onto the surface of the covering soil as aqueous suspension or emulsion with addition of 0.5% additive at a water application rate equivalent to 600 litres per hectare. After the treatment, the pots are placed in a greenhouse and kept under good growth conditions for the trial plants. After about 3 weeks, the effect of the preparations is scored visually in comparison with untreated controls as percentages. For example, 100% activity=the plants have died, 0% activity=like control plants. [table] Tables 4.1-4.15 below show the effects of selected compounds of the general formula (I) according to Tables 1 to 3 on various harmful plants at an application rate corresponding to 1280 or 320 g/ha, which have been obtained by the aforementioned experimental method.

[5] = test system: ALOMY; assay: Post-emergence herbicidal action against ALOMY; format: in vivo, Alopecurus myosuroides; conditions: 1280 g/ha, post-emergence at one-leaf stage, rated visually after about 3 weeks vs untreated controls
Protocol: as §2

[6] = test system: STEME; assay: Post-emergence herbicidal action against STEME; format: in vivo, Stellaria media; conditions: visual rating about 3 weeks after treatment
Outline: as §1

[7] = test system: PHBPU; assay: Post-emergence herbicidal action against PHBPU; format: in vivo, Pharbitis purpurea; conditions: 320 g/ha, visual rating about 3 weeks after treatment
Outline: as §1

[8] = test system: harmful plants; assay: Post-emergence herbicidal action, summary of Tables 5.1-5.16; format: in vivo; conditions: result in words
Protocol: as §2, with “Seeds” for “[table] Seeds”, “method. As the results from Tables 5.1-5.16 show, compounds of the invention have good herbicidal post-emergence efficacy against a broad spectrum of weed grasses and weeds. […] For example, compounds Nos. I-002, I-006, I-022, I-056 and I-072 applied by the post-emergence method have very good herbicidal action (80% to 100% herbicidal action) against harmful plants such as Alopecurus myosuroides, Amaranthus retroflexus, Matricaria inodora, Setaria viridis, Pharbitis purpurea and Stellaria media at an application rate of 1.28 kg of active substance or less per hectare.” for “method.”

[9] = test system: MATIN; assay: Post-emergence herbicidal action against MATIN; format: in vivo, Matricaria inodora; conditions: visual rating about 3 weeks after treatment
Outline: as §1

[10] = test system: VERPE; assay: Pre-emergence herbicidal action against VERPE; format: in vivo, Veronica persica; conditions: 320 g/ha, scored visually after about 3 weeks vs untreated controls
Outline: (§4)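 Visual percent activity (100% = plants dead, 0% = like control) scored about 3 weeks after pre-emergence treatment in greenhouse. Compounds as WP or EC, applied to covering soil surface with 0.5% additive, 600 L/ha water, at 1280 or 320 g/ha.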

[11] = test system: MATIN; assay: Pre-emergence herbicidal action against MATIN; format: in vivo, Matricaria inodora; conditions: 1280 g/ha, scored visually after about 3 weeks vs untreated controls
Description: as §3

[12] = test system: harmful plants; assay: Pre-emergence herbicidal action, summary of Tables 4.1-4.15; format: in vivo; conditions: result in words
Description: as §3, with “plants.” for “plants. [table] Tables 4.1-4.15 below show the effects of selected compounds of the general formula (I) according to Tables 1 to 3 on various harmful plants at an application rate corresponding to 1280 or 320 g/ha, which have been obtained by the aforementioned experimental method.”
Tables 4.1-4.15 below show the effects of selected compounds of the general formula (I) according to Tables 1 to 3 on various harmful plants at an application rate corresponding to 1280 or 320 g/ha, which have been obtained by the aforementioned experimental method.
For example, compounds no. I-008, I-056, I-057, I-061, I-067, I-070 and I-072 applied by the pre-emergence method have very good action (80% to 100% herbicidal action) against harmful plants such as Alopecurus myosuroides, Amaranthus retroflexus, Matricaria inodora, Polygonum convolvulus, Setaria viridis and Stellaria media at an application rate of 1.28 kg of active substance or less per hectare.

[13] = test system: ECHCG; assay: Post-emergence herbicidal action against ECHCG; format: in vivo, Echinochloa crus-galli; conditions: 1280 g/ha, post-emergence at one-leaf stage, rated visually after about 3 weeks vs untreated controls
Outline: as §1

[14] = test system: AMARE; assay: Pre-emergence herbicidal action against AMARE; format: in vivo, Amaranthus retroflexus; conditions: scored visually after about 3 weeks vs untreated controls; for Pre-emergence action at 320 g/ha against AMARE in %: 100% = plants have died, 0% = like control plants; for Pre-emergence action against AMARE in %: 1280 g/ha
Outline: as §4

[15] = test system: STEME; assay: Pre-emergence herbicidal action against STEME; format: in vivo, Stellaria media; conditions: 1280 g/ha, scored visually after about 3 weeks vs untreated controls
Outline: as §4

[16] = test system: VIOTR; assay: Pre-emergence herbicidal action against VIOTR; format: in vivo, Viola tricolor; conditions: 1280 g/ha, scored visually after about 3 weeks vs untreated controls
Description: as §3

[17] = test system: VIOTR; assay: Post-emergence herbicidal action against VIOTR; format: in vivo, Viola tricolor; conditions: 320 g/ha, visual rating about 3 weeks after treatment
Outline: as §1

[18] = test system: VERPE; assay: Post-emergence herbicidal action against VERPE; format: in vivo, Veronica persica; conditions: 320 g/ha, visual rating about 3 weeks after treatment
Outline: as §1

[19] = test system: SETVI; assay: Pre-emergence herbicidal action against SETVI; format: in vivo, Setaria viridis; conditions: 1280 g/ha, scored visually after about 3 weeks vs untreated controls
Outline: as §4

**Q.** With `COC(=O)COc1nn(-c2ccc(F)cc2)c(-c2ccc(F)cc2)c1C#N` [I-009] as the molecule, how does the “Post-emergence action against AMARE in %” value ([1]; 1280 g/ha) read?
**A.** 80%

**Q.** What about the “Post-emergence action against SETVI in %” value [2] of the same molecule?
**A.** 80%

**Q.** What about the “Post-emergence action against AVEFA in %” value [3] of the same molecule?
**A.** 80%

**Q.** How did the “Pre-emergence action at 1280 g/ha against CYPES in %” value [4] turn out when `COC(=O)COc1nn(-c2ccccc2)c(-c2cccc(F)c2)c1C#N` [I-021] was run?
**A.** 100%

**Q.** What about the “Post-emergence action against ALOMY in %” value [5] of the same molecule?
**A.** 80%

**Q.** What about the “Post-emergence action against STEME in %” value ([6]; 320 g/ha) of the same molecule?
**A.** 80%

**Q.** And the “Post-emergence action against STEME in %” value ([6]; 1280 g/ha)?
**A.** 80%

**Q.** What about the “Post-emergence action against PHBPU in %” value [7] of the same molecule?
**A.** 80%

**Q.** And the “Post-emergence action against AMARE in %” value ([1]; 320 g/ha)?
**A.** 80%

**Q.** What about the “Post-emergence action against AMARE in %” value ([1]; 1280 g/ha) of the same molecule?
**A.** 80%

**Q.** What about the “herbicidal efficacy against harmful plants when applied post-emergence” value [8] of the same molecule?
**A.** very good herbicidal efficacy

**Q.** And the “Post-emergence action against MATIN in %” value ([9]; 1280 g/ha)?
**A.** 80%

**Q.** And the “Pre-emergence action against VERPE in %” value [10]?
**A.** 90%

**Q.** And the “Pre-emergence action against MATIN in %” value [11]?
**A.** 90%

**Q.** What about the “herbicidal efficacy against harmful plants in the case of pre-emergence treatment” value [12] of the same molecule?
**A.** good herbicidal efficacy

**Q.** What about the “Post-emergence action against ECHCG in %” value [13] of the same molecule?
**A.** 80%

**Q.** And the “Pre-emergence action at 320 g/ha against AMARE in %” value [14]?
**A.** 100%

**Q.** What about the “Pre-emergence action against AMARE in %” value [14] of the same molecule?
**A.** 100%

**Q.** What about the “Pre-emergence action against STEME in %” value [15] of the same molecule?
**A.** 90%

**Q.** What about the “Pre-emergence action against VIOTR in %” value [16] of the same molecule?
**A.** 90%

**Q.** For `COC(=O)COc1nn(-c2ccc(F)cc2)c(-c2ccc(F)c(F)c2)c1Cl` [I-025], which “Post-emergence action against VIOTR in %” value [17] is on record?
**A.** 80%

**Q.** What about the “Post-emergence action against AMARE in %” value ([1]; 320 g/ha) of the same molecule?
**A.** 80%

**Q.** What about the “Post-emergence action against AMARE in %” value ([1]; 1280 g/ha) of the same molecule?
**A.** 80%

**Q.** And the “Post-emergence action against MATIN in %” value ([9]; 1280 g/ha)?
**A.** 80%

**Q.** And the “Post-emergence action against VERPE in %” value [18]?
**A.** 80%

**Q.** What about the “Pre-emergence action against SETVI in %” value [19] of the same molecule?
**A.** 80%

**Q.** What about the “Pre-emergence action against VERPE in %” value [10] of the same molecule?
**A.** 80%

**Q.** And the “Post-emergence action against AVEFA in %” value [3]?
**A.** 80%

**Q.** And the “Pre-emergence action at 320 g/ha against AMARE in %” value [14]?
**A.** 90%

**Q.** And the “Pre-emergence action against AMARE in %” value [14]?
**A.** 90%

**Q.** What does the source list for `COC(=O)COc1nn(-c2ccc(F)cc2)c(-c2ccc(F)c(F)c2)c1C#N` [I-036]?
**A.** Post-emergence action against VIOTR in % [17]: 80%; Post-emergence action against STEME in % ([6]; 320 g/ha): 80%; Post-emergence action against STEME in % ([6]; 1280 g/ha): 80%; Post-emergence action against PHBPU in % [7]: 80%; Post-emergence action against MATIN in % ([9]; 320 g/ha): 80%; Post-emergence action against MATIN in % ([9]; 1280 g/ha): 80%; Post-emergence action against VERPE in % [18]: 80%; Pre-emergence action against SETVI in % [19]: 80%; Post-emergence action against AVEFA in % [3]: 80%; Pre-emergence action against AMARE in % [14]: 80%
